Experiment [1] addresses T1, PcaY_PP-LBD (Pseudomonas putida, UniProt Q88JK6).
T1 construct: His-tag (from the pET28b vector; inferred from NdeI/BamHI cloning and HisTrap purification) (N); made in house; host or cells: Escherichia coli BL21 (DE3)
Put plainly: biochemical. The format is binding, Pseudomonas putida KT2440. The conditions noted are these: for KD: ITC at 25°C, 25 μM protein, One Binding Site model, means and SD of three experiments. As to the method:
Experiments were carried out at 25°C using a VP-ITC titration calorimeter (Microcal Inc., Northampton, Massachusetts). […] Obtained data were corrected with the heat changes measured for the injection of ligand into buffer. Data were normalized with the protein concentration (Bradford assay) and fitted with the “One Binding Site” model of the MicroCal version of the ORIGIN 7.0 software (OriginLab Corporation, Northampton, MA, United States), leaving all parameters floating.

The subject of experiment [2] is Pseudomonas putida KT2440. Put plainly: Quantitative capillary chemotaxis assay. The format is cell-based. The conditions noted are these: 30 min, wild type KT2440. As for the experimental part: Subsequently, the cells were re-suspended in the same buffer, adjusted to an OD660 of 0.15 and 230 μl aliquots of this bacterial culture were placed into 96-well plates. For the quantitative assays, one-microliter capillary tubes (Microcaps, Drummond Scientific, Ref. […]) were heat-sealed at one end and filled with either the chemotaxis buffer (negative control) or chemotaxis buffer containing the chemoeffector. The capillaries were immersed into the bacterial suspension and incubated for 30 min at room temperature. Capillaries were subsequently removed from the bacterial suspension, rinsed with sterile water and the content expelled into 1 ml of M9 medium. Serial dilutions were plated onto LB medium (containing the appropriate antibiotics) and the number of colony forming units was determined. In all cases, data were corrected with the number of cells that swam into buffer containing capillaries.

Experiment [3] has as its system P. putida KT2440. Put plainly: Growth in M9 minimal medium with ligand as sole C-source. Format: cell-based, Pseudomonas putida KT2440. Particulars: 10 mM (2 mM for poorly soluble) ligand. As for the experimental part:
P. putida KT2440R was grown in the same medium supplemented with rifampicin (10 μg ml^-1). […] When necessary, the pH of the medium was adjusted to 7.0 prior to inoculation. Bacterial growth rates were monitored by measuring the OD660 until cultures reached the stationary phase. The growth rate during the exponential growth (m) was calculated according to m = (LnOD2-LnOD1).(t2-t1)^-1, where OD2/t2 and OD1/t1 correspond to the OD660/time at the end and the beginning of the time interval. The generation time (G) was defined by G = Ln2 μ^-1. […] Normalized growth yield per carbon source after 24 h was determined applying correlation factors between cell dry weight and OD660 determined in batch cultures and assuming that all the carbon source was consumed during growth. Data were fitted by linear least squares regression or submitted to the chi-squared test with Yates correction using in both cases the Graph Pad Prism v7.02 software.

Experiment [4] has as its target McpH. Also noted: method as in ref (2) (a number printed in a supplementary file, which may have a reference list of its own: not looked up in the article's list). The conditions noted are these: ITC, purified recombinant LBD; ref (2); cited from earlier work. Background: ITC needs no label: the signal is the heat of the interaction.
In experiment [5] the target is McpU. Also noted: method as in ref (3) (a number printed in a supplementary file, which may have a reference list of its own: not looked up in the article's list). Particulars: ITC, purified recombinant LBD; ref (3); cited from earlier work.
Experiment [6] concerns the target McpA. Also on record: method as in ref (3) (a number printed in a supplementary file, which may have a reference list of its own: not looked up in the article's list). The conditions noted are these: ITC, purified recombinant LBD; ref (3); cited from earlier work.
For experiment [7], the target named is McpP. Also on record: method as in ref (6) (a number printed in a supplementary file, which may have a reference list of its own: not looked up in the article's list). The conditions noted are these: ITC, purified recombinant LBD; ref (6); cited from earlier work.

The structures appear in SMILES notation.

Here are results for 47 compounds from publication PMC5449446, “Metabolic Value Chemoattractants Are Preferentially Recognized at Broad Ligand Range Chemoreceptor of Pseudomonas putida KT2440” (Frontiers in Microbiology, 2017).

T1 sequence (Q88JK6 44-196): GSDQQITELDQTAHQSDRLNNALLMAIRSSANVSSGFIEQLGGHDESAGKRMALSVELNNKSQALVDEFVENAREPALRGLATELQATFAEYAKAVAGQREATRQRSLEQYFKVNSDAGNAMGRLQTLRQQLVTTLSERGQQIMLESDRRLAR

As a reminder, the Kd is the concentration at which binding is half-saturated. In turn, `Nc1ccccc1C(=O)O` [2-ABA, 2-Aminobenzoate] gave a Kd in experiment [1] of 89 µM. Further, in experiment [1] (ITC), the “∆G” value is -5.52 ± 0.07 kcal/mol and the “∆H” value is -18.0 ± 1.8 kcal/mol. With `O=C(O)c1ccccc1Cl` [2-CBA, 2-chlorobenzoate], in experiment [1], the KD result is given as “No binding”. Also, the chemotactic response result in experiment [2] is “did not induce a chemotactic response”.

Take `O=C(O)c1ccccc1O` [2-HBA, 2-hydroxybenzoate]: in experiment [1], the Kd worked out at 24 µM. Besides, in experiment [1] (ITC), the “∆G” value is reported as -6.30 ± 0.03 kcal/mol and the “∆H” value is listed as -21.0 ± 0.6 kcal/mol. Besides, the chemotactic response entry in experiment [2] is on record as “much weaker”. As for `Cc1ccccc1C(=O)O` [2-MBA], the KD result in experiment [1] is given as “No binding”.

For the compound `O=C(O)c1ccccc1[N+](=O)[O-]` [2-NBA], the KD result in experiment [1] is on record as “No binding”. In the case of `Nc1cccc(C(=O)O)c1` [3-ABA, 3-aminobenzoate], the Kd in experiment [1] was found to be 138 µM. In addition, in experiment [1] (ITC), the “∆G” value was -5.26 ± 0.07 kcal/mol and the “∆H” value was -16.4 ± 1.2 kcal/mol. For `O=C(O)c1cccc(Cl)c1` [3-CBA, 3-chlorobenzoate], the Kd in experiment [1] turned out to be 34 µM. In experiment [1] (ITC), the “∆G” value is -6.09 ± 0.03 kcal/mol and the “∆H” value is recorded as -13.2 ± 0.3 kcal/mol. Compound `O=C(O)C1=CC(=O)C(O)C(O)C1` (stereo not shown) [3-Dehydroshikimate, 3-dehydroshikimate] came in with a Kd in experiment [1] of 6 µM. In experiment [1] (ITC), the “∆G” value is on record as -7.11 ± 0.03 kcal/mol and the “∆H” value is listed as -19.9 ± 0.3 kcal/mol. In experiment [3], the “capacity to support growth as sole carbon source” value (“capacity to support growth” for short) is on record as “supported bacterial growth”. Turning to `O=C(O)c1cccc(O)c1` [3-HBA, 3-hydroxybenzoate], in experiment [1], the KD result is recorded as “No Binding”. `Cc1cccc(C(=O)O)c1` [3-MBA, 3-Methylbenzoate] returned a Kd in experiment [1] of 32 µM. In experiment [1] (ITC), the “∆G” value is -6.12 ± 0.04 kcal/mol and the “∆H” value is given as -21.9 ± 1.1 kcal/mol. The compound `O=C(O)c1cccc([N+](=O)[O-])c1` [3-NBA, 3-Nitrobenzoate] gave a Kd in experiment [1] of 61 µM. Moreover, in experiment [1] (ITC), the “∆G” value was -5.74 ± 0.06 kcal/mol and the “∆H” value was -17.5 ± 0.3 kcal/mol. The compound `Nc1ccc(C(=O)O)cc1` [4-ABA, 4-aminobenzoate] returned a Kd in experiment [1] of 98 µM. In experiment [1] (ITC), the “∆G” value is given as -5.46 ± 0.12 kcal/mol and the “∆H” value is given as -11.0 ± 0.4 kcal/mol. Besides, the chemotactic response entry in experiment [2] is on record as “much weaker”. In turn, `O=C(O)c1ccc(O)cc1` [4-HBA, 4-hydroxybenzoate] returned a Kd in experiment [1] of 7.2 µM. In experiment [1] (ITC), the “increase in affinity as compared to benzoate” value was “around 12 fold”, the “∆G” value was -7.01 ± 0.08 kcal/mol and the “∆H” value is reported as -33.2 ± 1.4 kcal/mol. In experiment [3], the “capacity to support growth” value is on record as “supported bacterial growth”. For `O=Cc1ccc(O)cc1` [4-Hbenzaldehyde, 4-hydroxybenzaldehyde], the KD result was “No Binding” in experiment [1] and “devoid of binding” in experiment [1] (listed as 4-hydroxybenzaldehyde). Turning to `Cc1ccc(C(=O)O)cc1` [4-MBA, 4-Methylbenzoate], in experiment [1], the affinity, expressed as Kd, was 41 µM. For the same compound, in experiment [1] (ITC), the “∆G” value is on record as -5.97 ± 0.12 kcal/mol and the “∆H” value was -13.2 ± 0.9 kcal/mol. The corresponding values for `O=C(O)c1ccc([N+](=O)[O-])cc1` [4-NBA, 4-Nitrobenzoate] are 50 µM, -5.86 ± 0.06 kcal/mol and -13.8 ± 1.2 kcal/mol. With `Nc1ncnc2[nH]cnc12` [Adenine], the Kd in experiment [4] was 2.4 µM. With `O=C(O)CCCCC(=O)O` [Adipate, adipate], the KD entry is reported as “No binding” in experiment [1] and “No binding heats” in experiment [1] (listed as adipate). In turn, `O=C(O)c1ccccc1` [Benzoate, benzoate] returned a Kd in experiment [1] of 90 ± 8 µM. Further, in experiment [1] (ITC), the “∆G” value is on record as -5.51 ± 0.06 kcal/mol and the “∆H” value is -13.3 ± 0.5 kcal/mol. For the same compound, the chemotactic response entry in experiment [2] is given as “much weaker”. Further, the “capacity to support growth” value in experiment [3] is reported as “supported bacterial growth”.

`NCCCCCN` [Cadaverine]: the Kd in experiment [5] was 22 µM. As for `NCC(=O)O` [Gly], in experiment [6], the Kd was 35 µM.

With `Nc1nc2nc[nH]c2c(=O)[nH]1` [Guanine], in experiment [4], the Kd is 4.3 µM. Consider `O=c1[nH]cnc2nc[nH]c12` [Hypoxanthine], for which the dissociation constant (Kd) in experiment [4] was 3.3 µM. `C[C@H](N)C(=O)O` [L-Ala]: in experiment [6], the Kd was 13 µM. As for `N=C(N)NCCC[C@H](N)C(=O)O` [L-Arg], in experiment [6], the Kd was 1.2 µM. As for `NC(=O)C[C@H](N)C(=O)O` [L-Asn], the Kd in experiment [6] is 4.3 µM. For the compound `N[C@@H](CS)C(=O)O` [L-Cys], in experiment [6], the Kd was 0.6 µM. Turning to `NC(=O)CC[C@H](N)C(=O)O` [L-Gln], in experiment [6], the dissociation constant Kd was 5.5 µM. As for `CC[C@H](C)[C@H](N)C(=O)O` [L-Ile], in experiment [6], the Kd was 85 µM. Take `CSCC[C@H](N)C(=O)O` [L-Met]: the Kd in experiment [6] was 5.8 µM. With `N[C@@H](Cc1ccccc1)C(=O)O` [L-Phe], the Kd in experiment [6] is 2.3 µM. In the case of `N[C@@H](CO)C(=O)O` [L-Ser], the Kd in experiment [6] was 43 µM.

Regarding `N[C@@H](Cc1ccc(O)cc1)C(=O)O` [L-Tyr], the Kd in experiment [6] is 12.1 µM. In the case of `CC(C)[C@H](N)C(=O)O` [L-Val], the Kd in experiment [6] was 373 µM. Take `C[C@H](O)C(=O)O` [L-lactate]: in experiment [7], the Kd is 107 µM. `O=C(O)CC(O)C(=O)O` (stereo not shown) [Malate, malate]: the KD entry in experiment [1] was “did not show any binding”. Turning to `CCC(=O)O` [Propionate], the Kd in experiment [7] is 34 µM. `O=C(O)c1ccc(O)c(O)c1` [Protocatechuate, protocatechuate] registered a Kd in experiment [1] of 6.4 µM. Also, in experiment [1] (ITC), the “∆G” value is recorded as -7.08 ± 0.04 kcal/mol and the “∆H” value is reported as -22.9 ± 1.2 kcal/mol. Moreover, the chemotactic response entry in experiment [2] is listed as “much weaker”. Besides, the “capacity to support growth” value in experiment [3] is “supported bacterial growth”. In the case of `c1ncc2nc[nH]c2n1` [Purine], in experiment [4], the Kd was 2.4 µM. For `NCCCCN` [Putrescine], the Kd in experiment [5] is 2 µM. On to `CC(=O)C(=O)O` [Pyruvate], for which the Kd in experiment [7] is 39 µM.

As for `NCCCCNCCCN` [Spermidine], the Kd in experiment [5] was 4.5 µM. Regarding `O=C(O)CCC(=O)O` [Succinate, succinate], the KD entry in experiment [1] is on record as “did not show any binding”.

On to `O=c1[nH]c(=O)c2[nH]c(=O)[nH]c2[nH]1` [Uric acid], for which the Kd in experiment [4] was 1.3 µM. For the compound `COc1cc(C(=O)O)ccc1O` [Vanillate, vanillate], the affinity in experiment [1], expressed as Kd, was 11 µM. In experiment [1] (ITC), the “∆G” value is recorded as -6.70 ± 0.03 kcal/mol and the “∆H” value is -12.8 ± 1.7 kcal/mol. `COc1cc(C=O)ccc1O` [Vanillin, vanillin]: the results for the KD entry in experiment [1] and in experiment [1] (listed as vanillin) were “No binding” and “absence of binding”, respectively. On to `O=c1[nH]c(=O)c2nc[nH]c2[nH]1` [Xanthine], for which, in experiment [4], the Kd was 2.7 µM.
